Legend:
[1] = Safety of thymalfasin in rats; type: in vivo, rat
Protocol: (§1) TLP expression-enhancing amounts of thymalfasin peptide can be determined by routine dose-titration experiments. Up-regulation of TLP can be achieved in vivo by administration of between 2 μg/kg and 6 mg/kg body weight of thymalfasin, preferably between 20 μg/kg and 200 μg/kg.

[2] = Safety of thymalfasin in humans; type: in vivo, human
Protocol: as §1

[3] = subcutaneously injected; Rost, et al., 1998; cited from earlier work

## Ac-SDAAVDTSSEITTKDLKEKKEVVEEAEN-OH [thymalfasin]
[1]
  dose found to be safe: ≤ 6 mg/kg/day
[2]
  dose found to be safe: ≤ 16 mg/dose/day
[3]
  plasma half-life: about 2 hours

Reference: US20060052297A1, “Method of up-regulating tumor antigen expression using thymalfasin” (priority 2002, published 2006)
